Laboratory results published in patent US20090253206A1, “NUCLEAR TRANSPORT AGENT AND METHOD FOR PRODUCING SAID AGENT” (LONZA COLOGNE AG, priority 2006, published 2009).
Ends that are not written are not given here.

Columns and labels:
[1] = system: pmaxGFP plasmid DNA; assay: Electrophoretic mobility shift assay in agarose gel, NLS peptides in water (FIG. 1); type: binding; conditions: 1 μg DNA with μg amounts of peptide in water, 20 μl, 20° C., 30 min; 0.6% agarose gel
Experimental: 1 μg DNA was incubated with peptide (μg amounts as indicated in the figure) in water in a total volume of 20 μl at 20° C. for 30 min. After that loading dye was added, each sample filled into a slot of a 0.6% agarose gel (Tris-acetate/EDTA as running buffer, pH 8.5). Electrophoresis was run at 90V for 120 min. P=1 μg plasmid DNA without peptide. M=kb marker (bands indicating 1.5, 2, 3, 4, 5, and 6 kb). The gel was stained with Ethidiumbromide for 10 min, then documented using a BioRad Gel-Doc System.
DNA interacting unspecifically with peptides through positively charged amino acids may mask positively charged nuclear localisation sequences (NLS) and interfere with their function in nuclear transport.
Peptides were synthesized by F-moc-Chemistry and HPLC-purified to 95% purity. The carboxyl-group at the C-terminus was amidated and the N-terminal amino-group was actylated, in order to eliminate additional charges.
DNA was pmaxGFP plasmid DNA ([…] size).
(§1) The NLS on the NLS-1 peptide may be masked and altered in its capacity to mediate nuclear translocation, whereas all other peptides are still functioning in nuclear import.

[2] = system: pmaxGFP plasmid DNA; assay: Electrophoretic mobility shift assay in agarose gel, peptides with different positive net charges (FIG. 2); type: binding; conditions: 1 μg DNA with 1 nM peptide in water, 20 μl, 20° C., 30 min; 0.6% agarose gel
Experimental: 1 μg DNA was incubated with 1 nM peptide in water in a total volume of 20 μl at 20° C. for 30 min. After that loading dye was added, each sample filled into a slot of a 0.6% agarose gel (Tris-acetate/EDTA as running buffer, pH 8.5). Electrophoresis was run at 90V for 120 min. P=1 μg plasmid DNA without peptide. M=kb marker (bands indicating 1.5, 2, 3, 4, 5, and 6 kb). The gel was stained with Ethidiumbromide for 10 min, then documented using a BioRad Gel-Doc System.
DNA interacting unspecifically with peptides through positively charged amino acids may mask positively charged nuclear localisation sequences (NLS) and interfere with their function in nuclear transport. […] Peptides were designed with different positive net charges, 5+, 4+, 3+, 2+, 0±, by exchanging neutral amino acids for acidic ones or vice versa acidic for neutral amino acids
(§2) Peptides were synthesized by F-moc-chemistry and HPLC-purified to 95% purity. The carboxyl-group at the C-terminus was amidated and the N-terminal amino-group was actylated, in order to eliminate additional charges.
as §1

[3] = system: pmaxGFP plasmid DNA; assay: DNA-band shift of plasmid DNA with positively charged peptides and peptide-NLS in Opti-MEM (FIGS. 3 and 4); type: binding; conditions: 90 ng or 135 ng DNA, various peptide amounts in Opti-MEM, 20° C., 30 min; comparison between peptides
Experimental: Plasmid DNA (90 ng per sample) was incubated with different amounts (numbers above each lane indicate pico-mole amounts per sample) of positively charged peptides (see list of peptide sequences for details) in Opti-MEM as described below.
Several positively charged peptides, as well as positively charged peptides bearing a positively charged NLS (NLS1) or a neutral NLS (NLS2) were tested for their ability to complex DNA and form higher aggregates, visible as shifts of the electrophoretic mobility of the DNA.
as §2, with “charges. U represents the spacer molecule 8-amino-3,6-dioxaoctanoic acid (UUU (U3) represents a trimer of U):” for “charges.”
Lyophilized peptides, provided by supplier, were dissolved in distilled water to 0.1 mM. DNA was pmaxGFP plasmid DNA, 3.7 kb size (amaxa AG, Cologne), dissolved in water at 1 mg/ml. The plasmid encodes a green fluorescent protein (GFP).
For DNA-band shift experiments 90 ng or 135 ng DNA, resp., were incubated with various amounts of peptide (indicated in the figure) in Opti-MEM (Invitrogen) in a total volume of 60 μl or 90 μl, resp., at 20° C. for 30 min. Loading dye was added before each sample was filled into a slot of a 0.6% agarose gel (40 mM Tris-acetate/1 mM EDTA as running buffer, pH 8.0). Electrophoresis was run at 90V for 120 min.
P=90 ng plasmid DNA without peptide M=kb marker (bands indicating 0.5, 1, 1.5, 2, 3, 4, 5, 6, 8, and 10 kb).
The gel was stained with Ethidiumbromide for 10 min, then documented using a BioRad Gel-Doc System.
With increasing amounts of peptide the DNA band is gradually shifting, indicating decreased electrophoretic mobility due to higher molecular size of the peptide-DNA complexes and due to decrease in negative charge of the DNA compensated by the positively charged peptides. As the concentration of the peptide further increases, the molecular weight of the complexes increases as well. The complexes are therefore hardly moving into the gel, the bands appear right below the loading slot. The plasmid DNA is represented by two bands in the gel, one dominant band of super-coiled slightly above 2 kb, and a weaker band between 3 and 4 kb showing the relaxed plasmid DNA.

[4] = system: Human Umbilical Vein Endothelial Cells (HUVEC); assay: Transfection of HUVEC with ExGen500 and peptide-NLS, GFP expression by flow cytometry; type: cell-based; conditions: for transfection efficiency (percentage of GFP-positive cells of all viable cells): ExGen500, 1.5 μg DNA, 24 hours post transfection; for change of transfection efficiency (in words): FIG. 5 and FIG. 6
Experimental: (§3) Cells were grown and seeded as described below. FACS data of duplicate samples are shown.
Cells were grown and seeded as described below. Mean values of the duplicate samples are shown.
(§4) Human Umbilical Vein Endothelial Cells (HUVEC, from LONZA) were grown in EGM-2 medium (Bullet Kit, LONZA) and seeded in 12-well plates one day before transfection at a density of 1.2×10^5 cells per well in 1 ml EGM-2 medium (LONZA).
(§5) Transfection reagents were ExGen500 (Fermentas) and HiFect (amaxa) used according to manufacturer's protocols. Plasmid-DNA (1.5 μg), coding for green fluorescent protein (pmaxGFP, amaxa) was complexed with peptides (amounts as indicated in the figures) for 30 min at room temperature prior to mixing with transfection reagent.
For transfection with ExGen500 complex formation was done in 30 μl 150 mM NaCl solution. These preformed DNA-peptide complexes were added to transfection reagent (diluted in Opti-MEM or 150 mM NaCl according to manufacturer's protocols) and incubated.
(§6) Complete transfection samples were added to HUVEC in Opti-MEM, incubated for 1 h at 37° C./5% CO2 in a humidified incubator. Medium was aspirated, cells washed with PBS twice. Fresh medium was added, and cells were incubated for another 23 h, then prepared for flow cytometry. To differentiated PC12 transfection samples were added in Opti-MEM, incubated for 1 h. After supernatant was removed fresh medium was added. Expression of maxGFP was measured by flow cytometry and expressed as transfection efficiency (percentage of GFP-positive cells of all viable cells) and X-mean (mean fluorescent intensity of the cells) 24 h after transfection (HUVEC), 48 h or 72 h after transfection in the case of PC12.

[5] = system: neuronally differentiated PC12 cells; assay: Transfection of neuronally differentiated PC12 cells with HiFect and peptide-NLS, GFP expression by flow cytometry; type: cell-based; conditions: differentiated PC12, HiFect, 1 μg DNA
Experimental: (§7) Cells were grown and seeded as described below. FACS data of mean values of the duplicate samples are shown.
PC12 cells (from ATCC) were grown in F-12K medium (ATCC) with 15% horse serum (Gibco) and 2.5% foetal calf serum (ATCC). Cells were seeded in 12-well plates; 5×10^4 coated with collagen (from rat tail (SIGMA), 60 μg per well, dissolved in 0.005% acetic acid/30% ethanol at 60 μg per ml). After one day of culture nerve growth factor (NGF-β from SIGMA, 100 ng/ml final concentration) was added to differentiate neuronal cells. 7 days after start of differentiation, cells were used for transfection.
Transfection reagents were ExGen500 (Fermentas) and HiFect (amaxa) used according to manufacturer's protocols. […]
(§8) For transfection with HiFect complex formation of DNA and peptide was done in 250 μl Opti-MEM (Invitrogen) for each sample.
as §6, with “To differentiated PC12 transfection samples were added in Opti-MEM, incubated for 1 h. After supernatant was removed fresh medium was added.” left out, “PC12. […]” for “PC12.”

[6] = system: Human Umbilical Vein Endothelial Cells (HUVEC); assay: Transfection of HUVEC with HiFect and peptide-NLS, GFP expression by flow cytometry; type: cell-based; conditions: HiFect, 1.5 μg DNA, 24 hours post transfection, FIG. 8 and FIG. 9
Experimental: as §3, §7, §4, §5, §8
as §6, with “Fresh medium was added, and cells were incubated for another 23 h, then prepared for flow cytometry. To differentiated PC12 transfection samples were added in Opti-MEM, incubated for 1 h. After supernatant was removed fresh medium was added.” left out

GSGSPKKKRKVGSG (Ac-GSGSPKKKRKVGSG-NH2) [NLS-1, SV40 large T-antigen core NLS with glycine and serine flanks]
alteration of the electrophoretic mobility of DNA (binding to DNA, aggregates) [1]: does bind to DNA and forms aggregates | alteration of the electrophoretic mobility of DNA (binding to DNA, aggregates) [2]: do bind to DNA and form aggregates

KKKKK KKKKK KKKKK K-UUU (Ac-KKKKKKKKKKKKKKKK; not fully specified (C-terminus); printed as KKKKK KKKKK KKKKK K-UUU) [K16U3]
peptide amount needed to form a high molecular weight complex / total band shift [3]: form a high molecular weight complex (i.e. no migration into the gel) at the same concentrations | transfection efficiency (percentage of GFP-positive cells of all viable cells) ([4]; FIG. 5): 49.5% | change of transfection efficiency (in words) ([4]; ExGen500, 24 h): decreasing transfection efficiency

KKKKK KKKKK KKKKK K-UUU-EEDTP PKKKR KVED [K16U3-NLS2]
transfection efficiency (percentage of GFP-positive cells of all viable cells) ([4]; FIG. 5): 69% | increase of transfection efficiency, factor ([4]; ExGen500, 24 h, compared to peptide K16U3 without NLS, FIG. 5): 1.4 | maximum increase in transfection efficiency, factor ([5]; 72 hours post transfection, compared to HiFect without peptide, FIG. 10): 2.6

KKKKK KKKKK KKKKK K-UUU-GSGSP KKKRK VGSG [K16U3-NLS1]
change of transfection efficiency (in words) ([4]; ExGen500, 24 h): increase of transfection efficiency is less distinctive

KKKKK KKKKK KKKKK KGGGS (Ac-KKKKKKKKKKKKKKKKGGGS-NH2) [K16GGGS]
peptide amount needed to form a high molecular weight complex / total band shift [3]: form a high molecular weight complex (i.e. no migration into the gel) at the same concentrations

KKKKKKKKKKKKKKKKKKKKKKKKKGGGS (KKKKKKKKKKKKKKKKKKKKKKKKKGGGS; DNA-anchoring peptide) [K25GGGS]
peptide amount needed to form a high molecular weight complex / total band shift [3]: cause a total shift to decreased electrophoretic mobility at lower peptide amounts than K16GGGS and K16U3

RKKRKRKKRKRKKRKRKKRKGGGS (Ac-RKKRKRKKRKRKKRKRKKRKGGGS-NH2) [RKK20GGGS]
peptide amount needed to form a high molecular weight complex / total band shift [3]: cause a total shift to decreased electrophoretic mobility at lower peptide amounts than K16GGGS and K16U3

RKKRK RKKRK RKKRK RKKRK-PEG27- EEDTP PKKKR KVED [RKK20-PEG27-NLS2]
peptide amount needed to form a high molecular weight complex / total band shift [3]: behaves similarly | increase in transfection efficiency, factor ([4]; ExGen500, 24 h, FIG. 7, comparator not stated): 1.2 | increase in transfection efficiency, factor [6]: 1.5 | maximum increase in transfection efficiency, factor ([5]; compared to peptide RKK20 without NLS, 200 pmol resp., FIG. 11): 2.8

RKKRK RKKRK RKKRK RKKRK-UUU-EEDTP PKKKR KVED [RKK20U3-NLS2]
peptide amount needed to form a high molecular weight complex / total band shift [3]: seems to increase the peptide amount necessary for a total band shift | increase in transfection efficiency, factor ([4]; ExGen500, 24 h, compared to DNA transfected without any peptide or complexed with RKK20GGGS peptide without NLS, FIG. 6): 1.2 | peptide amount sufficient for increase in transfection efficiency (in words) ([4]; ExGen500, FIG. 5 versus FIG. 6): lower amount of RKKU3-NLS2 than of K16U3-NLS2 is sufficient | increase in transfection efficiency, factor [6]: 2

RKKRK RKKRK RKKRK RKKRK-UUU-GSGSP KKKRK VGSG [RKK20U3-NLS1]
peptide amount needed to form a high molecular weight complex / total band shift [3]: does not behave much differently to the RKK20GGGS peptide | change of transfection efficiency (in words) ([4]; ExGen500, 24 h): increase is higher for the NLS2-peptide than for the NLS1-bearing peptide
